Reference: patent US20210007356A1, “IMIDE DERIVATIVE AND FUNGICIDE CONTAINING SAID DERIVATIVE AS ACTIVE INGREDIENT” (HOKKO CHEMICAL INDUSTRY CO., LTD., priority 2018, published 2021)
Where two headings read alike, the source gives them in different places.

Assays:
[1] = system: rice blast fungus (Pyricularia grisea); assay type: in vivo; details: 5 g of granule on nursery box, paddy rice; inoculated after 3 weeks; 7 days after inoculation
[2] = system: rice sheath blight fungus (Thanatephorus cucumeris); assay: Test Example 8: control effect against rice sheath blight by box treatment (granule); details: 5 g of granule on nursery box, paddy rice; inoculated after 3 weeks; 7 days after inoculation
Source text: (§1) Control value (%)=[1−(lesion height in sprayed plot/lesion height in unsprayed plot)]×100 (d)
From the top of a nursery box, 5 g of a granule prepared according to Formulation Example-4 was applied to a 2.5-leaf-stage paddy rice (variety: Asahi) seedling raised using a nursery box ( 1/10 the area of standard nursery box in size: 12 cm×15 cm×height 4 cm) within a greenhouse. The formulation-treated paddy rice seedling was immediately transplanted at 5 seedlings/pot into a pot ( 1/10000 are in size) filled with paddy soil (flooded). After growing for 3 weeks within a greenhouse, a culture of rice sheath blight fungus (Thanatephorus cucumeris) grown in advance on a rice straw medium was inoculated into the root of the formulation-treated paddy rice, and disease development was promoted in an artificial weather chamber at 26° C. (relative humidity=100%). Seven days after the inoculation, the rice sheath blight lesion height (height from the root) was examined, and the control value (%) was calculated according to formula (d). […] This test was performed with three replications, each consisting of one plot and one pot, per one formulation plot, and its average evaluation value of control effect was determined.

[3] = system: rice sheath blight fungus (Thanatephorus cucumeris); assay: Test Example 6: control effect against rice sheath blight by box treatment (flowable formulation); details: flowable 5,000 ppm, 50 mL irrigation of nursery box, paddy rice; inoculated after 3 weeks; 7 days after inoculation
Procedure: as §1
By irrigation, 50 mL of a diluted solution (5,000 ppm) of a flowable prepared according to Formulation Example-3 was applied to a 2.5-leaf-stage paddy rice (variety: Asahi) seedling raised using a nursery box ( 1/10 the area of standard nursery box in size: 12 cm×15 cm×height 4 cm) within a greenhouse. The formulation-treated paddy rice seedling was immediately transplanted at 5 seedlings/pot into a pot ( 1/10000 are in size) filled with paddy soil (flooded). After growing for 3 weeks within a greenhouse, a culture of rice sheath blight fungus (Thanatephorus cucumeris) grown in advance on a rice straw medium was inoculated into the root of the formulation-treated paddy rice, and disease development was promoted in an artificial weather chamber at 26° C. (relative humidity=100%). Seven days after the inoculation, the rice sheath blight lesion height (height from the root) was examined, and the control value (%) was calculated according to formula (d). […] This test was performed with three replications, each consisting of one plot and one pot, per one formulation plot, and its average evaluation value of control effect was determined.

[4] = system: rice blast fungus (Pyricularia grisea); assay type: in vivo; details: flowable 5,000 ppm, 50 mL irrigation of nursery box, paddy rice; inoculated after 3 weeks; 7 days after inoculation
[5] = system: rice blast fungus (Pyricularia grisea); assay type: in vivo; details: flowable 1,000 ppm, 1 mL dripped in paddy water, inoculated after 1 week, 7 days after inoculation
[6] = system: rice sheath blight fungus (Thanatephorus cucumeris); assay: Test Example 10: control effect against rice sheath blight by water surface application (flowable formulation); details: flowable 1,000 ppm, 1 mL dripped in paddy water, inoculated after 1 week, 7 days after inoculation
[7] = system: barley powdery mildew fungus (Erysiphe graminis); assay: Test Example 2: control effect against barley powdery mildew by foliage application; assay type: in vivo; details: wettable powder diluted to 100 ppm, 10 mL per pot foliage spray on barley; inoculated day after; 7 days after inoculation

Structure (SMILES) | evaluation value of control effect (from control value, number of lesions) [1] | evaluation value of control effect (from control value, lesion height) [2] | evaluation value of control effect (from control value, lesion height) [3] | evaluation value of control effect (from control value, number of lesions) [4] | evaluation value of control effect (from control value, number of lesions) [5] | evaluation value of control effect (from control value, lesion height) [6] | evaluation value of control effect (from control value, lesion area percentage) [7]
Cc1nnsc1C(=O)N(C(=O)c1cn(C)nc1C(F)F)c1ccccc1CCC(C)C [1-145] | 5 | 5 | 5 | 5 | 5 | 5 | 5
Cc1nn(C)c(F)c1C(=O)N(C(=O)c1snnc1C(F)F)c1ccccc1C(C)CC(C)C (stereo not shown) [1-258] | 5 | 5 | 5 | 5 | 5 | 5 | 4
Cc1nc(C(F)F)c(C(=O)N(C(=O)c2cn(C)nc2C(F)F)c2ccccc2C(C)CC(C)C)s1 (stereo not shown) [1-314] | 5 | 5 | 5 | 5 | 5 | 5 | 4
CC(C)CC(C)c1ccccc1N(C(=O)c1cn(C)nc1C(F)F)C(=O)c1scnc1C(F)(F)F (stereo not shown) [1-333] | 5 | 5 | 5 | 5 | 5 | 5 | 4
CC(C)CC(C)c1ccccc1N(C(=O)c1cn(C)nc1C(F)F)C(=O)c1scnc1C(F)F (stereo not shown) [1-341] | 5 | 5 | 5 | 5 | 5 | 5 | 4
CC(C)CC(C)c1ccccc1N(C(=O)c1cc(Cl)c(Cl)s1)C(=O)c1cn(C)nc1C(F)F (stereo not shown) [1-359] | 5 | 5 | 5 | 5 | 5 | 5 | 4
Cn1cc(C(=O)N(C(=O)c2cc(Cl)nc(Cl)c2)c2ccccc2-c2cc(F)c(F)c(F)c2)c(C(F)F)n1 [1-375] | 5 | 5 | 5 | 5 | 5 | 5 | 4
CC(C)CC(C)c1ccccc1N(C(=O)c1cc(F)nc(F)c1)C(=O)c1cn(C)nc1C(F)F (stereo not shown) [1-380] | 5 | 5 | 5 | 5 | 5 | 5 | 5
Cc1nc(C(F)F)c(C(=O)N(C(=O)c2snc(Cl)c2Cl)c2ccccc2CCC(C)C)s1 [7-37] | 5 | 5 | 5 | 5 | 5 | 5 | 4
Cc1nc(C(F)F)c(C(=O)N(C(=O)c2snc(Cl)c2Cl)c2ccccc2C(C)CC(C)C)s1 (stereo not shown) [7-38, N-(3,4-Dichloroisothiazole-5-carbonyl)-4-(difluoromethyl)-N-{2-(1,3-dimethylbutyl)phenyl}-2-methyl-thiazole-5-carboxamide] | 5 | 5 | 5 | 5 | 5 | 5 | 5
Cc1nc(C(F)F)c(C(=O)N(C(=O)c2snnc2C)c2ccccc2CCC(C)C)s1 [7-151] | 5 | 5 | 5 | 5 | 5 | 5 | 4
Cc1nc(C(F)F)c(C(=O)N(C(=O)c2snnc2C)c2ccccc2C(C)CC(C)C)s1 (stereo not shown) [7-152] | 5 | 5 | 5 | 5 | 5 | 5 | 5
Cc1nc(C(F)F)c(C(=O)N(C(=O)c2snnc2C(F)F)c2ccccc2C(C)CC(C)C)s1 (stereo not shown) [7-176] | 5 | 5 | 5 | 5 | 5 | 5 | 5
Cc1nc(C(F)F)c(C(=O)N(C(=O)c2cc(Cl)nc(Cl)c2)c2ccccc2C(C)CC(C)C)s1 (stereo not shown) [7-188] | 5 | 5 | 5 | 5 | 5 | 5 | 4
Cc1nc(C(F)F)c(C(=O)N(C(=O)c2sc(C)nc2C(F)F)c2ccccc2CCC(C)C)s1 [7-237] | 5 | 5 | 5 | 5 | 5 | 5 | 4
Cc1nc(C(F)F)c(C(=O)N(C(=O)c2scnc2C(F)(F)F)c2ccccc2C(C)CC(C)C)s1 (stereo not shown) [7-250] | 5 | 5 | 5 | 5 | 5 | 5 | 4
